The results in this text go back to ChEMBL document CHEMBL4364293, “Design, Synthesis, and Structure-Activity Relationship of 7-Propanamide Benzoxaboroles as Potent Anticancer Agents” (J Med Chem, 2019).

One series deals with MDA-MB-231. As to the kind of experiment: Antiproliferative activity against human MDA-MB-231 cells after 72 hrs by MTT assay. The settings on record: MDA-MB-231, 72 h. The class given is functional, cell-based. In general terms: Tetrazolium dyes change colour on reduction, which living cells bring about.
The next series concerns WI-38. As to the kind of experiment: Cytotoxicity against human WI38 cells after 72 hrs by MTT assay. Type of series: cell-based. The settings on record: WI-38, 72 h.
Another series deals with HCT-116. As to the kind of experiment: Antiproliferative activity against human HCT116 cells after 72 hrs by MTT assay. The class given is functional, cell-based. The settings on record: HCT-116, 72 h.
The subject of another series is SK-OV-3. The series can be described thus: Antiproliferative activity against human SKOV3 cells after 72 hrs by MTT assay. The settings on record: SK-OV-3, 72 h. Type of series: functional, cell-based.
The nature of series [1]: Selectivity ratio, ratio of IC50 for human WI38 cells to IC50 for human SKOV3 cells. Type of series: toxicity. The settings on record: WI38 cells versus SKOV3 cells, read-out: Ratio IC50.
The nature of series [2]: Clearance in Sprague-Dawley rat at 2 mg/kg, iv by non-compartmental analysis. The class given is ADME, organism-based. The settings on record: in vivo.
Series [3] is described as follows: Tmax in Sprague-Dawley rat at 10 mg/kg, po by non-compartmental analysis. Type of series: ADME, organism-based. The settings on record: in vivo.
Series [4] in a line: Oral bioavailability in Sprague-Dawley rat at 10 mg/kg by non-compartmental analysis. The class given is ADME, organism-based. The settings on record: in vivo.
Series [5] can be described thus: Apparent permeability across apical to basolateral side in human Caco2 cells. The class given is ADME, cell-based. The settings on record: Caco-2.
Series [6] has as its target Leucine--tRNA ligase, cytoplasmic (Homo sapiens) (UniProt Q9P2J5). The series can be described thus: Inhibition of human leucyl-tRNA synthetase.
Series [7] can be described thus: Half-life in Sprague-Dawley rat at 10 mg/kg, po by non-compartmental analysis. The class given is ADME, organism-based. The settings on record: in vivo.
The subject of series [8] is SW480. The series can be described thus: Antitumor activity against human SW480 cells xenografted in ip dosed BALB/c mouse assessed as reduction in tumor weight administered once daily for 33 days and measured every 3 days during compound dosing. Type of series: functional, organism-based.
Series [9] can be described thus: Volume of distribution at steady state in Sprague-Dawley rat at 2 mg/kg, iv by non-compartmental analysis. The class given is ADME, organism-based. The settings on record: in vivo, read-out: Vdss.
The nature of series [10]: Apparent permeability across basolateral to apical side in human Caco2 cells. Type of series: ADME, cell-based. The settings on record: Caco-2. (Passage across Caco-2 layers is used to estimate intestinal permeability.)
The nature of series [11]: AUC infinity in Sprague-Dawley rat at 2 mg/kg, iv by non-compartmental analysis. Type of series: ADME, organism-based. The arrangement: dose 2 mg/kg, time infinity, route intravenous. The settings on record: in vivo.
Series [12] can be described thus: Half-life in Sprague-Dawley rat at 2 mg/kg, iv by non-compartmental analysis. The class given is ADME, organism-based. The settings on record: in vivo.
The test system of series [13] is SW480. As to the kind of experiment: Antitumor activity against human SW480 cells xenografted in ip dosed BALB/c mouse assessed as reduction in tumor volume administered once daily for 33 days and measured every 3 days during compound dosing. Type of series: functional, organism-based. Background: Xenograft models place foreign cells or tissue in a host animal.

Series [14] can be described thus: AUC infinity in Sprague-Dawley rat at 10 mg/kg, po by non-compartmental analysis. Type of series: ADME, organism-based. The arrangement: dose 10 mg/kg, time infinity, route oral. The settings on record: in vivo.
Series [15] is described as follows: Toxicity in BALB/c mouse xenografted with human SW480 cells assessed as reduction in body weight at 2 to 10 mg/kg, ip administered once daily for 33 days and measured every 3 days during compound dosing. Type of series: organism-based. The settings on record: in vivo.
The nature of series [16]: Cmax in Sprague-Dawley rat at 10 mg/kg, po by non-compartmental analysis. The arrangement: dose 10 mg/kg, route oral. The class given is ADME, organism-based. The settings on record: in vivo.
A short description of series [17]: Efflux ratio of apparent permeability from basolateral to apical over apical to basolateral side in human Caco2 cells. The class given is ADME, cell-based. The settings on record: Caco-2.

SMILES strings stand for the structures. Calls of active or inactive are those of the source. No cut-off for these calls is given here. Some results are limits rather than exact numbers.

Sequence of Leucine--tRNA ligase, cytoplasmic (Homo sapiens) (Q9P2J5 whole entry, looked up): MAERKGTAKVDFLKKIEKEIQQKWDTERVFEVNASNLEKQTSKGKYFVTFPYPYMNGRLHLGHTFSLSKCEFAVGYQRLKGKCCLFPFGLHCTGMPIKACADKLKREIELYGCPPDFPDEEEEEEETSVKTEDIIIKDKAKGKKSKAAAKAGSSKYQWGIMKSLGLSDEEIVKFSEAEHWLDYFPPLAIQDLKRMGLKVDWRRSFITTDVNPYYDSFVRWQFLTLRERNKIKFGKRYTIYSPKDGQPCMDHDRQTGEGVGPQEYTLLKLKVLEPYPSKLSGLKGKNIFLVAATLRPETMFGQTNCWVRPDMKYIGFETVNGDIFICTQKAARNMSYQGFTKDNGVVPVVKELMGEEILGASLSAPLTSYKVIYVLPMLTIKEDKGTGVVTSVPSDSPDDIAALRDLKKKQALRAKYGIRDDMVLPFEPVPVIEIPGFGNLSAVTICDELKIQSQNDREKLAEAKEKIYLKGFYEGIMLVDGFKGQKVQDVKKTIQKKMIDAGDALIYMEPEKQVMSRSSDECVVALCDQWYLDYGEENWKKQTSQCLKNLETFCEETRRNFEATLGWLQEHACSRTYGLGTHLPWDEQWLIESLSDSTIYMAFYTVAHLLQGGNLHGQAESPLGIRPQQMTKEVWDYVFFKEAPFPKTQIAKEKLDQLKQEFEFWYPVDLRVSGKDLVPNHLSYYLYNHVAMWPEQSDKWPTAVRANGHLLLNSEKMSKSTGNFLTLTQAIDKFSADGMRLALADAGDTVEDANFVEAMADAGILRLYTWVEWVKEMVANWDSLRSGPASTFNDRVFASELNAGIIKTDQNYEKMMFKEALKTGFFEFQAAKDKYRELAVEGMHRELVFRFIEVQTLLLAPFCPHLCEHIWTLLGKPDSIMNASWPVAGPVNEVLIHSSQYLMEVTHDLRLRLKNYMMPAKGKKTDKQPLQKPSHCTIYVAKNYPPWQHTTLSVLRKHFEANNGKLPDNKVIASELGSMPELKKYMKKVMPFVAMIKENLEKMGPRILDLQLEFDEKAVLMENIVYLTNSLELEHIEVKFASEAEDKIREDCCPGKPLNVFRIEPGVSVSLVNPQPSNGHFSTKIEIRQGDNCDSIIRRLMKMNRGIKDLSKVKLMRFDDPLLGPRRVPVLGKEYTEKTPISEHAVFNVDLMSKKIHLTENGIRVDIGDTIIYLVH

A word on the IC50: it is the midpoint of a concentration-inhibition curve. Read a high IC50 as weaker potency. With `O=C(CCc1cccc2c1B(O)OC2)Nc1ccccc1`, the IC50 with MDA-MB-231 was determined as 0.23 µM; in the series with WI-38 it was 30 µM; with HCT-116 it was 0.35 µM; in the series on SK-OV-3, 0.2 µM. Further, the selectivity ratio in series [1] worked out at 150.

The term clearance denotes the volume of plasma or blood freed of the substance per unit of time. Read a low clearance as a low capacity for elimination. By Tmax is commonly meant the time from dosing to the highest level. As a reminder, the bioavailability is the share of a dose that reaches the circulation, judged against a reference dose that is usually intravenous. Usually Papp A→B stands for the apparent permeability from the apical to the basolateral side of a cell layer. A word on the half-life: it is the time in which the quantity being followed falls by half. Read a low half-life as fast loss. By Papp B→A is commonly meant how fast a substance crosses the layer from the basolateral side. As usually defined, the AUC(0-inf) is total exposure, with the tail of the curve extrapolated. Lower therefore signals less exposure. In general, Cmax refers to the highest concentration seen after dosing. As a reminder, the efflux ratio is a quotient of directional permeabilities that is used to spot active efflux. Compound `CC(=O)c1ccc(-c2cccc(NC(=O)CCc3cccc4c3B(O)OC4)c2)cc1` showed a clearance in series [2] of 17.5 mL/min/kg. The Tmax in [3] was 15 min. In addition, the bioavailability in series [4] was 4.6%. Further, in series [5], the Papp A→B turned out to be 3.95 ×10⁻⁶ cm/s. Besides, in series [6], the inhibition entry is “inactive”. The half-life in [7] is 120 min; in [12] it was 36 min. Also, the IC50 in the series on MDA-MB-231 worked out at 0.056 µM; in the series on WI-38, 3.7 µM; in the series with HCT-116, 0.11 µM; with SK-OV-3 it was 0.021 µM. Moreover, the Activity entry in the series on SW480 [8] was “Dose-dependent effect”; in the series with SW480 [13], “Dose-dependent effect”; in [15], “Non-Toxic”. For the same compound, the Vd in series [9] was found to be 0.882 L/kg. Moreover, the Papp B→A in series [10] stood at 2.23 ×10⁻⁶ cm/s. In addition, the AUC(0-inf) in series [11] is 1920 ng·h/mL; in series [14], 459 ng·h/mL. The compound further showed a Cmax in [16] of 373 ng/mL. Moreover, in [1], the selectivity ratio was found to be 180. The efflux ratio in series [17] amounted to 0.56.

In the case of `O=C(CCc1cccc2c1B(O)OC2)Nc1cccc(-c2ccc(F)cc2)c1`, the IC50 with MDA-MB-231 was 0.25 µM; in the series on WI-38, 4.1 µM; in the series with HCT-116, 0.55 µM; with SK-OV-3, 0.093 µM. Besides, the selectivity ratio in series [1] was 44.

For `O=C(CCc1cccc2c1B(O)OC2)Nc1ccc2ccccc2c1`, the IC50 with MDA-MB-231 was 1.8 µM; in the series with WI-38, greater than 100 µM; in the series on HCT-116, 1.7 µM; with SK-OV-3, 1.4 µM.

Regarding `O=C(CCc1cccc2c1B(O)OC2)Nc1ccc(Cl)cc1`, the IC50 was 3.6 µM in the series with MDA-MB-231, greater than 100 µM in the series on WI-38, 12 µM in the series with HCT-116 and 5 µM in the series on SK-OV-3.

As for `O=C(CCc1cccc2c1B(O)OC2)NCc1ccccc1`, the IC50 with MDA-MB-231, in the series on WI-38, in the series with HCT-116 and in the series on SK-OV-3 was greater than 100 µM throughout.

Consider `Cc1ccc(NC(=O)CCc2cccc3c2B(O)OC3)cc1`, for which the IC50 in the series with MDA-MB-231 is 1.1 µM; in the series with WI-38, greater than 100 µM; in the series with HCT-116, 4.5 µM; in the series with SK-OV-3, 0.86 µM.

As for `COc1cccc(-c2cccc(NC(=O)CCc3cccc4c3C(O)OC4)c2)c1` (stereo not given), the IC50 with MDA-MB-231 stood at 52 µM; in the series with WI-38 it was 93 µM; in the series on HCT-116 it was 49 µM; in the series with SK-OV-3, 61 µM.

Turning to `O=C(CCc1cccc2c1B(O)OC2)Nc1cccc(-c2cccc(C(F)(F)F)c2)c1`, the IC50 came out at 0.41 µM in the series with MDA-MB-231, 23 µM in the series with WI-38, 0.58 µM in the series with HCT-116 and 0.39 µM with SK-OV-3.

With `COc1cccc(-c2cccc(NC(=O)CCc3cccc4c3COB4O)c2)c1`, the IC50 in the series with MDA-MB-231 was 76 µM; with WI-38 it was greater than 100 µM; in the series on HCT-116, 46 µM; in the series with SK-OV-3, 78 µM.

In the case of `CC(C)(C)c1ccc(NC(=O)CCc2cccc3c2B(O)OC3)cc1`, the IC50 amounted to 33 µM in the series on MDA-MB-231, 55 µM with WI-38, 19 µM in the series with HCT-116 and 4.2 µM with SK-OV-3.

As for `N#Cc1ccc(-c2cccc(NC(=O)CCc3cccc4c3B(O)OC4)c2)cc1`, the IC50 in the series with MDA-MB-231 was found to be 0.38 µM; in the series on WI-38 it was 12 µM; with HCT-116, 0.41 µM; in the series on SK-OV-3, 0.34 µM.

With `CCOC(=O)c1ccc(NC(=O)CCc2cccc3c2B(O)OC3)cc1`, the half-maximal inhibitory concentration (IC50) in the series with MDA-MB-231, in the series on WI-38, in the series on HCT-116 and in the series on SK-OV-3 was greater than 100 µM each time.

As to `CSc1ccc(-c2cccc(NC(=O)CCc3cccc4c3B(O)OC4)c2)cc1`, the IC50 turned out to be 0.14 µM with MDA-MB-231, 3.8 µM with WI-38, 0.18 µM in the series on HCT-116 and 0.14 µM in the series with SK-OV-3.

Consider `COc1cc(OC)cc(-c2cccc(NC(=O)CCc3ccc4c(c3)COB4O)c2)c1`, for which the concentration for half-maximal inhibition (IC50) in the series with MDA-MB-231 was 77 µM; with WI-38, greater than 100 µM; with HCT-116, 56 µM; with SK-OV-3, 93 µM.

For `OB1OCc2ccccc21` [BENZOXABOROLE], the IC50 in the series with MDA-MB-231 is greater than 100 µM; with WI-38 it was 58 µM; in the series with HCT-116, greater than 100 µM; in the series with SK-OV-3, greater than 100 µM.

For the compound `CC(=O)c1ccc(-c2cccc(NC(=O)CCc3ccccc3)c2)cc1`, the half-inhibitory concentration (IC50) in the series with MDA-MB-231 worked out at 2.7 µM; in the series on WI-38, 13 µM; with HCT-116 it was 4 µM; in the series with SK-OV-3, 3.2 µM.

For `CC(C)c1cccc(NC(=O)CCc2cccc3c2B(O)OC3)c1`, the IC50 came out at 1.6 µM in the series with MDA-MB-231, 22 µM in the series with WI-38, 1.6 µM in the series on HCT-116 and 0.51 µM in the series with SK-OV-3.

In the case of `CC(C)(C)OC(=O)NCc1ccc(NC(=O)CCc2cccc3c2B(O)OC3)cc1`, the IC50 in the series on MDA-MB-231 was 1.3 µM; in the series on WI-38 it was 4.8 µM; in the series with HCT-116, 2.3 µM; in the series on SK-OV-3 it was 2 µM.

On to `COc1cc(OC)cc(-c2cccc(NC(=O)CCc3ccccc3)c2)c1`, for which the IC50 in the series with MDA-MB-231 was 87 µM; in the series with WI-38, greater than 100 µM; in the series on HCT-116, greater than 100 µM; in the series on SK-OV-3 it was greater than 100 µM.

For the compound `CC(C)(C)OC(=O)Nc1ccc(NC(=O)CCc2cccc3c2B(O)OC3)cc1`, the half-inhibitory concentration (IC50) was 29 µM with MDA-MB-231, greater than 100 µM in the series with WI-38, 24 µM in the series on HCT-116 and greater than 100 µM with SK-OV-3.

In the case of `CC(=O)c1ccc(-c2cccc(NC(=O)CCc3ccc4c(c3)B(O)OC4)c2)cc1`, the IC50 with MDA-MB-231 was 59 µM; in the series with WI-38, greater than 100 µM; with HCT-116 it was 19 µM; with SK-OV-3, greater than 100 µM.

With `COc1ccc(-c2cccc(NC(=O)CCc3cccc4c3B(O)OC4)c2)cc1`, the IC50 in the series with MDA-MB-231 worked out at 0.088 µM; in the series with WI-38, 1.4 µM; in the series with HCT-116, 0.16 µM; in the series with SK-OV-3 it was 0.048 µM.

For `COc1cccc(-c2cccc(NC(=O)CCc3ccc4c(c3)B(O)OC4)c2)c1`, the half-inhibitory concentration (IC50) in the series with MDA-MB-231 is 49 µM; in the series with WI-38, greater than 100 µM; in the series on HCT-116, 21 µM; in the series with SK-OV-3, 62 µM.
